Results: PubChem BioAssay (NCI)
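In this assay, cells in 96-well plates receive the compound at five concentrations for 48 hours. Endpoints are linearly interpolated between the surrounding concentrations. TGI is the concentration that stops growth completely.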 Where a SMILES comes first, the peptide text is derived from it. [ ]: non-standard residue; d: D form. Ac5c = NC1(C(=O)O)CCCC1

Tests used:
Experiment in all cases: DTP human tumour cell line panel, 48 h
786-0 renal = tested on: 786-0 renal
A498 renal = tested on: A498 renal
A549 NSCLC = tested on: A549 NSCLC
ACHN renal = tested on: ACHN renal
CAKI-1 renal = tested on: CAKI-1 renal
CCRF-CEM leukemia = tested on: CCRF-CEM leukemia
COLO 205 colon = tested on: COLO 205 colon
HCC-2998 colon = tested on: HCC-2998 colon
HCT-116 colon = tested on: HCT-116 colon
HCT-15 colon = tested on: HCT-15 colon
HL-60(TB) leukemia = tested on: HL-60(TB) leukemia
HOP-62 NSCLC = tested on: HOP-62 NSCLC
HOP-92 NSCLC = tested on: HOP-92 NSCLC
IGROV1 ovarian = tested on: IGROV1 ovarian
K-562 leukemia = tested on: K-562 leukemia
KM12 colon = tested on: KM12 colon
LOX IMVI melanoma = tested on: LOX IMVI melanoma
M14 melanoma = tested on: M14 melanoma
MALME-3M melanoma = tested on: MALME-3M melanoma
MCF7 breast = tested on: MCF7 breast
MDA-N = tested on: MDA-N
MOLT-4 leukemia = tested on: MOLT-4 leukemia
NCI-H226 lung = tested on: NCI-H226 lung
NCI-H23 lung = tested on: NCI-H23 lung
NCI-H460 lung = tested on: NCI-H460 lung
NCI/ADR-RES ovarian = tested on: NCI/ADR-RES ovarian
OVCAR-3 ovarian = tested on: OVCAR-3 ovarian
OVCAR-5 ovarian = tested on: OVCAR-5 ovarian
OVCAR-8 ovarian = tested on: OVCAR-8 ovarian
PC-3 prostate = tested on: PC-3 prostate
RPMI-8226 leukemia = tested on: RPMI-8226 leukemia
RXF 393 renal = tested on: RXF 393 renal
SF-268 CNS = tested on: SF-268 CNS
SF-295 CNS = tested on: SF-295 CNS
SF-539 CNS = tested on: SF-539 CNS
SK-MEL-2 melanoma = tested on: SK-MEL-2 melanoma
SK-MEL-28 melanoma = tested on: SK-MEL-28 melanoma
SK-MEL-5 melanoma = tested on: SK-MEL-5 melanoma
SK-OV-3 ovarian = tested on: SK-OV-3 ovarian
SN12C renal = tested on: SN12C renal
SNB-19 CNS = tested on: SNB-19 CNS
SNB-75 CNS = tested on: SNB-75 CNS
SR leukemia = tested on: SR leukemia
SW-620 colon = tested on: SW-620 colon
T-47D breast = tested on: T-47D breast
TK-10 renal = tested on: TK-10 renal
U251 CNS = tested on: U251 CNS
UO-31 renal = tested on: UO-31 renal
DU-145 prostate = tested on: DU-145 prostate
EKVX NSCLC = tested on: EKVX NSCLC
HS 578T breast = tested on: HS 578T breast
HT29 colon = tested on: HT29 colon
MDA-MB-231 breast = tested on: MDA-MB-231 breast
NCI-H522 lung = tested on: NCI-H522 lung
UACC-257 melanoma = tested on: UACC-257 melanoma
UACC-62 melanoma = tested on: UACC-62 melanoma
MDA-MB-435 = tested on: MDA-MB-435
BT-549 breast = tested on: BT-549 breast
OVCAR-4 ovarian = tested on: OVCAR-4 ovarian

Measured: TGI

C/C(=N\NC(=O)c1ccncc1)c1cccc(F)c1
not listed: DU-145 prostate | EKVX NSCLC | HS 578T breast | HT29 colon | MDA-MB-231 breast | NCI-H522 lung | UACC-257 melanoma | UACC-62 melanoma | MDA-MB-435 | BT-549 breast | OVCAR-4 ovarian
> 10 µM: all other assays above

N#Cc1nc(C(O)c2ccccc2)oc1N (stereo unspecified)
not listed: HCC-2998 colon | HCT-15 colon | NCI-H460 lung | SR leukemia | MDA-MB-435 | BT-549 breast | OVCAR-4 ovarian
> 100 µM: all other assays above

COC(=O)C1(NC(=O)C(C)NC(=O)C(CCCCN)NC(=O)C(CC(C)C)NC(C)=O)CCCC1 (stereo unspecified) (Ac-LKA[Ac5c]-OMe; configuration not given here)
not listed: A498 renal | CAKI-1 renal | HOP-92 NSCLC | LOX IMVI melanoma | MALME-3M melanoma | NCI-H226 lung | NCI-H23 lung | NCI/ADR-RES ovarian | OVCAR-3 ovarian | OVCAR-5 ovarian | RXF 393 renal | SK-MEL-2 melanoma | U251 CNS | DU-145 prostate | UACC-62 melanoma | BT-549 breast | OVCAR-4 ovarian
> 100 µM: all other assays above

CCOC(=O)/C(C#N)=C/c1ccc(SCc2ccco2)c([N+](=O)[O-])c1
not listed: HCT-15 colon | T-47D breast | TK-10 renal
> 100 µM: all other assays above

CC(=O)c1c2c(cc3c1CC1(C3)Cc3cc4c(c(C(=O)O)c3C1)CCCC4)CCCC2 (stereo unspecified) (tested in a mixture with another compound)
40.6 µM: UO-31 renal
43.9 µM: MOLT-4 leukemia
48.7 µM: OVCAR-3 ovarian
54.9 µM: HL-60(TB) leukemia
93.6 µM: HCC-2998 colon
96.2 µM: M14 melanoma
72.4 µM: HCT-116 colon
72.6 µM: U251 CNS
89.3 µM: RPMI-8226 leukemia
63.7 µM: SK-MEL-5 melanoma
53.6 µM: NCI-H460 lung
60.5 µM: SK-MEL-2 melanoma
68.4 µM: COLO 205 colon
59.7 µM: KM12 colon
39.7 µM: HOP-92 NSCLC
94.6 µM: CCRF-CEM leukemia
53.8 µM: SR leukemia
74.3 µM: UACC-257 melanoma
44.6 µM: HOP-62 NSCLC
not listed: A498 renal | NCI-H226 lung | RXF 393 renal | SF-539 CNS | MDA-MB-231 breast | BT-549 breast
> 100 µM: all other assays above
